According to patent publication US12522635B2, “Amyloid peptide variants” (Loyola Marymount University, priority 2019, dated 2026):
Entries after “also recorded” stand apart in the source; their conditions may differ. Where a SMILES comes first, the peptide text is derived from it. Bridges are numbered along the chain shown (N, C = ends).

Columns and labels:
[1] = AFM of peptide alone (self-aggregation / fibril formation); assay type: physicochemical; settings: for aggregation propensity relative to comparator: comparison of pramlintide with the IAPP peptides
Description: Samples labeled with hIAPP contained 40 μM hIAPP. The sample with pramlintide and hIAPP contained a 2:1 molar mixture (80 μM Pramlintide mixed with 40 μM hIAPP). The samples with raccoon IAPP and Pramlintide alone contained 40 μM of the indicated peptides. Each sample was incubated for 40 minutes at 37° C. with shaking; conditions known to promote hIAPP amyloid formation. All scans show raw data with no flattening and are […].
Samples of hIAPP with or without animal IAPP were prepared as described in Example 1 and were then incubated with shaking at 37° C. for 40 minutes. After this incubation, 17 μL of each sample was deposited onto freshly cleaved mica. Samples were incubated for 5 minutes at room temperature before washing with 200 μL sterile water. After drying, the samples were scanned using an MFP-3D atomic force microscope (Asylum Research) set on A/C mode and a 240 m silicon cantilever (Olympus).
Many of the animal IAPP variants are known to likewise form fibrils and yield amyloid-plaques when scanned via AFM. […] This is in spite of the fact that all of these IAPP peptides (except polar bear IAPP) are known to aggregate and form fibrils themselves under these or similar conditions

RIN-m cells = assay: MTT viability assay, peptide alone or mixed with hIAPP; assay type: cell-based; settings: for rescue / protection of cells from hIAPP toxicity (words): hIAPP mixed with peptide 1:1, MTT assay
Method in brief: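 RIN-m cells were exposed to hIAPP alone, each animal IAPP peptide alone, or hIAPP mixed with an animal IAPP for 46 h at 37° C in RPMI-1640 with 10% FBS. Viability by MTT reduction (2 h), formazan solubilized in SDS/DMF and read at 570 nm, relative to untreated cells as 100%.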

human IAPP (hIAPP) [2] = biological target: T1, human IAPP (hIAPP) (Homo sapiens, UniProt P10997); assay: Atomic force microscopy (AFM) of hIAPP fibril formation when mixed with IAPP peptides; assay type: biochemical; settings: for inhibition of hIAPP fibril formation, AFM: 37 μM hIAPP and 75 μM peptide, 37° C. with shaking for 40 minutes
T1 construct: This 37 amino acid polypeptide is co-secreted from pancreatic β-islet cells with insulin
T1 sequence (P10997 34-70 limits assumed): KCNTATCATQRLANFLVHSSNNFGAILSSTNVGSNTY
Method in brief: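 hIAPP (37–40 μM) alone or mixed with other IAPP peptides (equimolar or about 2:1 peptide:hIAPP) was shaken at 37° C for 30–40 minutes. Samples deposited on mica, washed with water, dried and imaged by AFM in A/C mode; scans […], raw unflattened data.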

human IAPP (hIAPP) [3] = biological target: T1, human IAPP (hIAPP); assay: Thioflavin T binding assay of hIAPP aggregation when mixed with IAPP peptides; assay type: biochemical; settings: peptide mixed with hIAPP; no single assay (thioflavin T and AFM)
Method in brief: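 37 μM hIAPP plus 75 μM animal IAPP (2:1) in 20 mM Tris pH 7.4, shaken 200 rpm at 37 °C for 40 min. Aliquots were mixed into 50.0 μM thioflavin T and emission read at 488 nm, with fibrils checked by AFM. Significance vs hIAPP alone was determined by t-test.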

human IAPP (hIAPP) [4] = biological target: T1, human IAPP (hIAPP); assay: hIAPP aggregation in the presence of human insulin; assay type: biochemical
[5] = following injection; Wijesekara et al. 2015; cited from earlier work
human IAPP = biological target: T2, human IAPP (Homo sapiens, UniProt P10997); settings: cited from earlier work
T2 sequence (P10997 34-70 limits assumed): T1 sequence (P10997 34-70 limits assumed)

CC[C@H](C)[C@H](NC(=O)[C@H](C)NC(=O)CNC(=O)[C@@H](NC(=O)[C@H](CC(N)=O)NC(=O)[C@H](CO)NC(=O)[C@H](CO)NC(=O)[C@H](CO)NC(=O)[C@H](CCCNC(=N)N)NC(=O)[C@@H](NC(=O)[C@H](CC(C)C)NC(=O)[C@H](Cc1ccccc1)NC(=O)[C@H](CC(=O)O)NC(=O)[C@H](C)NC(=O)[C@H](CC(C)C)NC(=O)[C@H](CCCNC(=N)N)NC(=O)[C@H](CCC(N)=O)NC(=O)[C@@H](NC(=O)[C@@H](NC(=O)[C@@H]1CSSC[C@H](NC(=O)[C@@H](N)CCCCN)C(=O)N[C@@H](CC(N)=O)C(=O)N[C@@H]([C@@H](C)O)C(=O)N[C@@H](C)C(=O)N[C@@H]([C@@H](C)O)C(=O)N1)C(C)C)[C@@H](C)O)C(C)C)[C@@H](C)CC)C(=O)N[C@@H](Cc1ccc(O)cc1)C(=O)N[C@@H](CO)C(=O)N1CCC[C@H]1C(=O)N[C@H](C(=O)N[C@@H](CC(N)=O)C(=O)N[C@H](C(=O)NCC(=O)N[C@@H](CO)C(=O)N[C@@H](CC(N)=O)C(=O)N[C@H](C(=O)N[C@@H](Cc1ccc(O)cc1)C(N)=O)[C@@H](C)O)C(C)C)[C@@H](C)O [chicken IAPP] (H-KCNTATCVTQRLADFLVRSSSNIGAIYSPTNVGSNTY-NH2; disulfide 2-7 (inferred); N-terminus and C-terminus assumed)
aggregation propensity relative to comparator [1]: less aggregation-prone than Pramlintide | rescue / protection of cells from hIAPP toxicity (words) (RIN-m cells): significant increase in cell viability; also recorded: rescue living cells from the toxic effects of hIAPP | inhibition of hIAPP fibril formation, AFM (human IAPP (hIAPP) [2]): significant ability to prevent fiber formation | inhibition of hIAPP aggregation (summary statement) (human IAPP (hIAPP) [3]): able to inhibit such aggregation; also recorded: inhibit aggregate formation by hIAPP | prevention of hIAPP aggregation in the presence of human insulin (human IAPP (hIAPP) [4]): prevent hIAPP aggregation in the presence of human insulin

CC[C@H](C)[C@H](NC(=O)[C@H](C)NC(=O)CNC(=O)[C@H](CC(C)C)NC(=O)[C@H](CC(N)=O)NC(=O)[C@H](CC(N)=O)NC(=O)[C@H](CO)NC(=O)[C@H](CO)NC(=O)[C@H](CCCNC(=N)N)NC(=O)[C@H](CC(C)C)NC(=O)[C@H](CC(C)C)NC(=O)[C@H](Cc1ccccc1)NC(=O)[C@H](CC(N)=O)NC(=O)[C@H](C)NC(=O)[C@H](CC(C)C)NC(=O)[C@H](CCCNC(=N)N)NC(=O)[C@H](CCC(N)=O)NC(=O)[C@@H](NC(=O)[C@@H](NC(=O)[C@@H]1CSSC[C@H](NC(=O)[C@@H](N)CCCCN)C(=O)N[C@@H](CC(N)=O)C(=O)N[C@@H]([C@@H](C)O)C(=O)N[C@@H](C)C(=O)N[C@@H]([C@@H](C)O)C(=O)N1)C(C)C)[C@@H](C)O)C(=O)N[C@@H](CC(C)C)C(=O)N[C@@H](CO)C(=O)N1CCC[C@H]1C(=O)N[C@H](C(=O)N[C@@H](CC(N)=O)C(=O)N[C@H](C(=O)NCC(=O)N[C@@H](CO)C(=O)N[C@@H](CC(N)=O)C(=O)N[C@H](C(=O)N[C@@H](Cc1ccc(O)cc1)C(N)=O)[C@@H](C)O)C(C)C)[C@@H](C)O [raccoon IAPP] (H-KCNTATCVTQRLANFLLRSSNNLGAILSPTNVGSNTY-NH2; disulfide 2-7 (inferred); N-terminus and C-terminus assumed)
aggregation propensity relative to comparator [1]: less aggregation-prone than Pramlintide | aggregation / fibril formation of peptide alone, AFM ([1]; peptide alone, incubated 40 minutes at 37° C. with shaking): did not aggregate | rescue / protection of cells from hIAPP toxicity (words) (RIN-m cells): protected the RIN-m cells from the toxic effects of hIAPP; also recorded: significant increase in cell viability; also recorded: rescue living cells from the toxic effects of hIAPP | toxicity of peptide to cells (RIN-m cells; peptide alone, MTT assay, pancreatic (RIN-m) cells): some cellular toxicity | inhibition of hIAPP fibril formation, AFM (human IAPP (hIAPP) [2]): significant ability to prevent fiber formation | prevention of hIAPP aggregation, AFM (FIG. 5) (human IAPP (hIAPP) [2]; 40 μM hIAPP, pramlintide 80 μM (2:1), 40 minutes at 37° C. with shaking): prevented hIAPP from aggregating | inhibition of hIAPP aggregation (summary statement) (human IAPP (hIAPP) [3]): able to inhibit such aggregation; also recorded: inhibit aggregate formation by hIAPP | prevention of hIAPP aggregation in the presence of human insulin (human IAPP (hIAPP) [4]): prevent hIAPP aggregation in the presence of human insulin

ANFLVH (Islet amyloid polypeptide; UniProt P10997 46-51, looked up, fragment) [peptide derived from human IAPP, from Wijesekara et al. 2015]
fasting blood glucose levels and glucose tolerance [5]: improve fasting blood glucose levels and glucose tolerance | decrease of cytotoxicity (literature) (human IAPP): decrease cytotoxicity | inhibition of amyloid fibril formation (literature) (human IAPP): inhibit amyloid fibril formation
